{"source": "PubChem BioAssay AID1259407", "about": "(Chemical Carcinogenesis Research Information System (CCRIS), 2018)", "system": "CCRIS mutagenicity, Ames/micronucleus/aberration tests", "assay": "CCRIS mutagenicity studies", "excerpt": "The CCRIS database contains chemical records with carcinogenicity, mutagenicity, tumor promotion, and tumor inhibition test results. It was developed by the National Cancer Institute (NCI). Data are derived from studies cited in primary journals, current awareness tools, NCI reports, and other sources. Test results have been reviewed by experts in carcinogenesis and mutagenesis.\nCCRIS provides historical information from the years 1985 - 2011. It is no longer updated.\nThis is an archive assay for CCRIS mutagenicity studies.", "key": {"[1]": {"conditions": "Test System: AMES SALMONELLA TYPHIMURIUM, Strain/Indicator: TA100, Metabolic Activation: NONE, Method: STANDARD PLATE"}, "[2]": {"conditions": "Test System: AMES SALMONELLA TYPHIMURIUM, Strain/Indicator: TA98, Metabolic Activation: NONE, Method: PREINCUBATION"}, "[3]": {"conditions": "Test System: AMES SALMONELLA TYPHIMURIUM, Strain/Indicator: TA100, Metabolic Activation: NONE, Method: PREINCUBATION"}, "[4]": {"conditions": "Test System: AMES SALMONELLA TYPHIMURIUM, Strain/Indicator: TA1535, Metabolic Activation: NONE, Method: PREINCUBATION"}}, "note": "The source made the active and inactive calls. No rule for the calls is given here.", "data": [{"smiles": "O=[N+]([O-])c1cc2ccccc2c2c([N+](=O)[O-])cccc12", "values": [{"measurement": "mutagenic call", "setting": "Test System: AMES SALMONELLA TYPHIMURIUM, Strain/Indicator: TA98(1,8-DNP6), Metabolic Activation: NONE, Method: STANDARD PLATE", "result": "active; positive"}, {"measurement": "mutagenic call", "setting": "Test System: AMES SALMONELLA TYPHIMURIUM, Strain/Indicator: TA98(NR), Metabolic Activation: NONE, Method: STANDARD PLATE", "result": "active; positive"}, {"measurement": "mutagenic call", "setting": "Test System: AMES SALMONELLA TYPHIMURIUM, Strain/Indicator: TA98, Metabolic Activation: NONE, Method: STANDARD PLATE", "result": "active; positive"}, {"measurement": "mutagenic call", "setting": "[1]", "result": "active; positive"}, {"measurement": "mutagenic call", "setting": "Test System: AMES SALMONELLA TYPHIMURIUM, Strain/Indicator: YG1021, Metabolic Activation: NONE, Method: STANDARD PLATE", "result": "active; positive"}, {"measurement": "mutagenic call", "setting": "Test System: AMES SALMONELLA TYPHIMURIUM, Strain/Indicator: YG1024, Metabolic Activation: NONE, Method: STANDARD PLATE", "result": "active; positive"}, {"measurement": "mutagenic call", "setting": "Test System: AMES SALMONELLA TYPHIMURIUM, Strain/Indicator: YG1026, Metabolic Activation: NONE, Method: STANDARD PLATE", "result": "active; positive"}, {"measurement": "mutagenic call", "setting": "Test System: AMES SALMONELLA TYPHIMURIUM, Strain/Indicator: YG1029, Metabolic Activation: NONE, Method: STANDARD PLATE", "result": "active; positive"}]}, {"smiles": "N#CCc1ccc(Cl)cc1", "values": [{"measurement": "mutagenic call", "setting": "[2]", "result": "inactive; negative"}, {"measurement": "mutagenic call", "setting": "Test System: AMES SALMONELLA TYPHIMURIUM, Strain/Indicator: TA98, Metabolic Activation: RAT, LIVER, S-9, PHENOBARBITAL AND BETA-NAPHTHOFLAVONE, Method: PREINCUBATION", "result": "inactive; negative"}, {"measurement": "mutagenic call", "setting": "[3]", "result": "inactive; negative"}, {"measurement": "mutagenic call", "setting": "Test System: AMES SALMONELLA TYPHIMURIUM, Strain/Indicator: TA100, Metabolic Activation: RAT, LIVER, S-9, PHENOBARBITAL AND BETA-NAPHTHOFLAVONE, Method: PREINCUBATION", "result": "inactive; negative"}, {"measurement": "mutagenic call", "setting": "Test System: AMES SALMONELLA TYPHIMURIUM, Strain/Indicator: TA102, Metabolic Activation: NONE, Method: PREINCUBATION", "result": "inactive; negative"}, {"measurement": "mutagenic call", "setting": "Test System: AMES SALMONELLA TYPHIMURIUM, Strain/Indicator: TA102, Metabolic Activation: RAT, LIVER, S-9, SODIUM PHENOBARBITAL AND 5,6-BENZOFLAVONE, Method: PREINCUBATION", "result": "inactive; negative"}, {"measurement": "mutagenic call", "setting": "Test System: AMES SALMONELLA TYPHIMURIUM, Strain/Indicator: TA104, Metabolic Activation: NONE, Method: PREINCUBATION", "result": "inactive; negative"}, {"measurement": "mutagenic call", "setting": "Test System: AMES SALMONELLA TYPHIMURIUM, Strain/Indicator: TA104, Metabolic Activation: RAT, LIVER, S-9, SODIUM PHENOBARBITAL AND 5,6-BENZOFLAVONE, Method: PREINCUBATION", "result": "inactive; negative"}, {"measurement": "mutagenic call", "setting": "[4]", "result": "inactive; negative"}, {"measurement": "mutagenic call", "setting": "Test System: AMES SALMONELLA TYPHIMURIUM, Strain/Indicator: TA1535, Metabolic Activation: RAT, LIVER, S-9, PHENOBARBITAL AND BETA-NAPHTHOFLAVONE, Method: PREINCUBATION", "result": "inactive; negative"}, {"measurement": "mutagenic call", "setting": "Test System: AMES SALMONELLA TYPHIMURIUM, Strain/Indicator: TA1537, Metabolic Activation: NONE, Method: PREINCUBATION", "result": "inactive; negative"}, {"measurement": "mutagenic call", "setting": "Test System: AMES SALMONELLA TYPHIMURIUM, Strain/Indicator: TA1537, Metabolic Activation: RAT, LIVER, S-9, PHENOBARBITAL AND BETA-NAPHTHOFLAVONE, Method: PREINCUBATION", "result": "inactive; negative"}, {"measurement": "mutagenic call", "setting": "Test System: E. COLI, Strain/Indicator: WP2UVRA/PKM101, Metabolic Activation: NONE, Method: PREINCUBATION", "result": "inactive; negative"}, {"measurement": "mutagenic call", "setting": "Test System: E. COLI, Strain/Indicator: WP2UVRA/PKM101, Metabolic Activation: RAT, LIVER, S-9, PHENOBARBITAL AND BETA-NAPHTHOFLAVONE, Method: PREINCUBATION", "result": "inactive; negative"}, {"measurement": "mutagenic call", "setting": "Test System: E. COLI, Strain/Indicator: WP2UVRA, Metabolic Activation: NONE, Method: PREINCUBATION", "result": "inactive; negative"}, {"measurement": "mutagenic call", "setting": "Test System: E. COLI, Strain/Indicator: WP2UVRA, Metabolic Activation: RAT, LIVER, S-9, PHENOBARBITAL AND BETA-NAPHTHOFLAVONE, Method: PREINCUBATION", "result": "inactive; negative"}]}, {"smiles": "CCCC(=O)Nc1snc2cc(Cl)ccc12", "values": [{"measurement": "mutagenic call", "setting": "[1]", "result": "inactive; negative"}, {"measurement": "mutagenic call", "setting": "Test System: AMES SALMONELLA TYPHIMURIUM, Strain/Indicator: TA100, Metabolic Activation: S-9, Method: STANDARD PLATE", "result": "inactive; negative"}, {"measurement": "mutagenic call", "setting": "Test System: AMES SALMONELLA TYPHIMURIUM, Strain/Indicator: TA1537, Metabolic Activation: NONE, Method: STANDARD PLATE", "result": "inactive; negative"}, {"measurement": "mutagenic call", "setting": "Test System: AMES SALMONELLA TYPHIMURIUM, Strain/Indicator: TA1537, Metabolic Activation: S-9, Method: STANDARD PLATE", "result": "inactive; negative"}]}, {"smiles": "NC(=O)CC[C@H](N)C(=O)O", "values": [{"measurement": "mutagenic call", "setting": "End Point: In vitro chromosomal aberrations, Test System: Chinese hamster ovary (CHO) cells, Metabolic Activation: None", "result": "inactive; negative; glutamine, alone or in combination with vitamin c, reduced effect of d"}, {"measurement": "mutagenic call", "setting": "End Point: In vivo chromosomal aberrations, Test System: Bone marrow cells, Species: Rat, Strain/Sex: Wistar/Male and female, Route: Oral", "result": "inactive; negative; glutamine, alone or with vitamin c, reduced effect of doxorubicin"}, {"measurement": "mutagenic call", "setting": "End Point: In vivo micronucleus, Test System: Peripheral blood cells, Species: Mouse, Strain/Sex: Swiss/Male, Route: Oral", "result": "inactive; negative"}]}, {"smiles": "CCCCCCCCCCCCOCC1CO1", "note": "(configuration not stated)", "values": [{"measurement": "mutagenic call", "setting": "Test System: AMES SALMONELLA TYPHIMURIUM, Strain/Indicator: TA97, Metabolic Activation: HAMSTER, LIVER, S-9, AROCLOR 1254 (10%), Method: PREINCUBATION", "result": "inactive; negative"}, {"measurement": "mutagenic call", "setting": "Test System: AMES SALMONELLA TYPHIMURIUM, Strain/Indicator: TA97, Metabolic Activation: HAMSTER, LIVER, S-9, AROCLOR 1254 (30%), Method: PREINCUBATION", "result": "inactive; negative"}, {"measurement": "mutagenic call", "setting": "Test System: AMES SALMONELLA TYPHIMURIUM, Strain/Indicator: TA97, Metabolic Activation: NONE, Method: PREINCUBATION", "result": "inactive; negative"}, {"measurement": "mutagenic call", "setting": "Test System: AMES SALMONELLA TYPHIMURIUM, Strain/Indicator: TA97, Metabolic Activation: RAT, LIVER, S-9, AROCLOR 1254 (10%), Method: PREINCUBATION", "result": "inactive; negative"}, {"measurement": "mutagenic call", "setting": "Test System: AMES SALMONELLA TYPHIMURIUM, Strain/Indicator: TA97, Metabolic Activation: RAT, LIVER, S-9, AROCLOR 1254 (30%), Method: PREINCUBATION", "result": "inactive; negative"}, {"measurement": "mutagenic call", "setting": "Test System: AMES SALMONELLA TYPHIMURIUM, Strain/Indicator: TA98, Metabolic Activation: HAMSTER, LIVER, S-9, AROCLOR 1254 (10%), Method: PREINCUBATION", "result": "inactive; negative"}, {"measurement": "mutagenic call", "setting": "Test System: AMES SALMONELLA TYPHIMURIUM, Strain/Indicator: TA98, Metabolic Activation: HAMSTER, LIVER, S-9, AROCLOR 1254 (30%), Method: PREINCUBATION", "result": "inactive; negative"}, {"measurement": "mutagenic call", "setting": "[2]", "result": "inactive; negative"}, {"measurement": "mutagenic call", "setting": "Test System: AMES SALMONELLA TYPHIMURIUM, Strain/Indicator: TA98, Metabolic Activation: RAT, LIVER, S-9, AROCLOR 1254 (10% & 30%), Method: PREINCUBATION", "result": "inactive; negative"}, {"measurement": "mutagenic call", "setting": "Test System: AMES SALMONELLA TYPHIMURIUM, Strain/Indicator: TA100, Metabolic Activation: HAMSTER, LIVER, S-9, AROCLOR 1254 (10%), Method: PREINCUBATION", "result": "inactive; negative"}, {"measurement": "mutagenic call", "setting": "Test System: AMES SALMONELLA TYPHIMURIUM, Strain/Indicator: TA100, Metabolic Activation: HAMSTER, LIVER, S-9, AROCLOR 1254 (30%), Method: PREINCUBATION", "result": "inactive; negative"}, {"measurement": "mutagenic call", "setting": "[3]", "result": "inactive; negative"}, {"measurement": "mutagenic call", "setting": "Test System: AMES SALMONELLA TYPHIMURIUM, Strain/Indicator: TA100, Metabolic Activation: RAT, LIVER, S-9, AROCLOR 1254 (10%), Method: PREINCUBATION", "result": "inactive; negative"}, {"measurement": "mutagenic call", "setting": "Test System: AMES SALMONELLA TYPHIMURIUM, Strain/Indicator: TA100, Metabolic Activation: RAT, LIVER, S-9, AROCLOR 1254 (30%), Method: PREINCUBATION", "result": "inactive; negative"}, {"measurement": "mutagenic call", "setting": "Test System: AMES SALMONELLA TYPHIMURIUM, Strain/Indicator: TA1535, Metabolic Activation: HAMSTER, LIVER, S-9, AROCLOR 1254 (10%), Method: PREINCUBATION", "result": "inactive; negative"}, {"measurement": "mutagenic call", "setting": "[4]", "result": "inactive; negative"}, {"measurement": "mutagenic call", "setting": "Test System: AMES SALMONELLA TYPHIMURIUM, Strain/Indicator: TA1535, Metabolic Activation: RAT, LIVER, S-9, AROCLOR 1254 (10%), Method: PREINCUBATION", "result": "inactive; negative"}, {"measurement": "mutagenic call", "setting": "Test System: AMES SALMONELLA TYPHIMURIUM, Strain/Indicator: TA1535, Metabolic Activation: RAT, LIVER, S-9, AROCLOR 1254 (30%), Method: PREINCUBATION", "result": "inactive; negative"}]}, {"smiles": "O=C(OCc1cccc([N+](=O)[O-])c1)c1ccccc1", "values": [{"measurement": "mutagenic call", "setting": "[2]", "result": "inactive; negative"}, {"measurement": "mutagenic call", "setting": "[3]", "result": "inactive; negative"}, {"measurement": "mutagenic call", "setting": "Test System: AMES SALMONELLA TYPHIMURIUM, Strain/Indicator: TA100, Metabolic Activation: RAT, LIVER, S-9, AROCLOR 1254, Method: PREINCUBATION", "result": "inactive; negative"}]}]}
